Patent US8242157B2, “Benzimidazole derivatives useful as TRPM8 channel modulators” (Janssen Pharmaceutica NV, priority 2009, dated 2012)
Values joined by “and” are separate entries in the source; they are usually repeats but may differ in a detail not shown here. Equal values may be shown once. Read-outs that look alike come from different tables or passages of the source.

Legend:
[1] = system: icilin-induced "wet-dog" shakes; test: Inhibition of icilin-induced "wet-dog" shakes in rats; assay type: in vivo; conditions: male Sprague Dawley rats; 10 mg/kg p.o., 60 min pre-icilin; vehicle 10% Solutol (0.5% HPMC for 47); [1-(test compound WDS count/vehicle WDS count)]x100
Procedure: Male Sprague Dawley rats ([…], Charles River Labs, n=6-9/treatment) were used to evaluate the ability of test compounds to block icilin-induced “wet-dog” shakes (WDS). The test compound was administered in an appropriate vehicle, such as hydroxypropyl-β-cyclodextrin (HP-β-CD), methocellulose, 10% Solutol, H2O or the like, by the appropriate route (e.g., i.p. or p.o.), 30-60 min before icilin. Icilin was then administered in PEG-400 or 10% solutol/H2O, at 1.0 or 3.0 mg/kg, i.p. and spontaneous “wet-dog” shakes were counted 10-20 min post-icilin.
Representative compounds of the present invention were tested at 10 mg/kg p.o. and 60 min pre-incilin, according to the procedure as described above. Results, as listed in Table 7 below, are presented as a percent inhibition of shakes, which was calculated as [1−(test compound WDS count/vehicle WDS count)]×100.

canine TRPM8 = target: T1, canine TRPM8 (Canis lupus familiaris, UniProt Q1A7N1); test: In Vitro Canine TRPM8 Functional Assay (icilin-induced intracellular Ca2+, FLIPR/FDSS); assay type: cell-based; conditions: for % Inh @ 0.2 μM: 0.2 μM compound; for IC50: icilin at approx. 80% maximal response, eight-point concentration-response
T1 construct: expressed in transfected cells
T1 sequence (Q1A7N1 1-1104): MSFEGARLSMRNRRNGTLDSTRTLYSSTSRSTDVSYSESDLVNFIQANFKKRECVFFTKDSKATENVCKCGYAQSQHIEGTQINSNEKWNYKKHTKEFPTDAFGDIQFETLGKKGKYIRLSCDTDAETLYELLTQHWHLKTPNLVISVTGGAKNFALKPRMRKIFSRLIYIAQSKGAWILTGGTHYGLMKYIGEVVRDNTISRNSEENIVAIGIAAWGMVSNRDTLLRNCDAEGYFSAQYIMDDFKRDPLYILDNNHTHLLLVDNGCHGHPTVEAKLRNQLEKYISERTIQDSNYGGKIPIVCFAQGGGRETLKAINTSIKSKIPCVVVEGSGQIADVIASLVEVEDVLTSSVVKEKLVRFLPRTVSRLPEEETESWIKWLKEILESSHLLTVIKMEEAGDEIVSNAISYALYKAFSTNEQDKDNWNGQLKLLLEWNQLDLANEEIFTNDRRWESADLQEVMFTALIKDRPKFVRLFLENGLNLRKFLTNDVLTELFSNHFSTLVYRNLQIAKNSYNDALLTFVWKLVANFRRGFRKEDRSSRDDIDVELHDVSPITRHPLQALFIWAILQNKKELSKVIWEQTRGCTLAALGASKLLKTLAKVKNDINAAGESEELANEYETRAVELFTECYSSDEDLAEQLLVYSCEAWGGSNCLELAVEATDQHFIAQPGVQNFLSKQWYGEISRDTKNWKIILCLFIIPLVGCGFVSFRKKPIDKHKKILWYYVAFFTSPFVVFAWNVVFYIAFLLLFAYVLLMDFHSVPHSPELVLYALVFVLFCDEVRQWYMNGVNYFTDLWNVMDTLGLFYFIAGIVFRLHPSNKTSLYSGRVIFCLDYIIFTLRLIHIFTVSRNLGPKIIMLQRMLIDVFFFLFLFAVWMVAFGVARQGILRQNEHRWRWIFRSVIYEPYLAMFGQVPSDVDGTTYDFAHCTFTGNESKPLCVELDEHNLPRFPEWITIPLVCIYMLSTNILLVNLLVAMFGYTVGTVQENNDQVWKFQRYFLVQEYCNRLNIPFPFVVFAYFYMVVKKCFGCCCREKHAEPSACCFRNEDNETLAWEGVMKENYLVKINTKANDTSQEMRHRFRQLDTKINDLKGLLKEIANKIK
Procedure: The functional activity of representative compounds of the formula (I) of the present invention was quantified by measuring changes in intracellular calcium concentration using a Ca^2+-sensitive fluorescent dye. The changes in fluorescent signal were monitored by a fluorescence plate reader, either a FLIPR™ (Molecular Devices) or FDSS (Hamamatsu).
HEK293 cells stably expressing canine TRPM8 were routinely grown as monolayers in Dulbecco's minimum essential medium supplemented with 10% FBS, 2 mM L-glutamine, 100 units/mL penicillin, 100 ug/mL streptomycin and 400 μg/mL G418. Cells were maintained in 5% CO2 at 37° C. At 24 hr prior to assay, cells were seeded in black wall, clear-base poly-D-lysine coated 384-well plates (BD Biosciences, NJ, USA) at a density of 5,000 cells per well in culture medium and grown overnight in 5% CO2 at 37° C. On assay day, growth media was removed, and cells were loaded with Calcium 3 Dye (Molecular Devices) for 35 min at 37° C., under 5% CO2 and then incubated for 25 min at room temperature and atmosphere. Subsequently, cells were tested for agonist-induced increases in intracellular Ca^2+ levels using FLIPR™ or FDSS. Cells were treated with compounds of the formula (I) at varying concentrations and intracellular […] was measured for 5 min prior to the addition of icilin to all wells to achieve a final concentration that produces approximately an 80% maximal response.
Basal FI was subtracted prior to normalizing data to percent of maximal response. Curves were generated using the average of quadruplicate wells for each data point using nonlinear regression of either sigmoidal dose response or sigmoidal dose response (variable slope). Finally, the EC50 and IC50 values were calculated with the best-fit curve determined by GraphPad Prism

[2] = HEK293 cells stably expressing canine TRPM8, icilin activation, 0.2 µM
[3] = HEK293, 0.2 μM compound, HEK293 cells stably expressing canine TRPM8, icilin activation, read-out: % Inh @ 0.2 μM
[4] = HEK293 cells stably expressing canine TRPM8, read-out: IC50

Row | SMILES | inhibition at 0.2 µM (canine TRPM8; [3]) [%] | IC50 (canine TRPM8; [4]) | also measured
1 | Cn1c(N(Cc2ccc(OC(F)(F)F)cc2)S(=O)(=O)c2ccccc2)nc2ccccc21 [Compound #6] | 101 | 1 nM and 2 nM | % Inhibition of shakes [1]: 20.2%; % Inh @ 0.2 μM (canine TRPM8; [2]): 100%
2 | Cn1c(N(Cc2ccc(F)c(C(F)(F)F)c2)S(=O)(=O)c2ccccc2)nc2ccccc21 [Compound #15, N-(4-Fluoro-3-trifluoromethyl-benzyl)-N-(1-methyl-1H-benzimidazol-2-yl)-benzenesulfonamide] | 102 | 1 nM and 4 nM | % Inhibition of shakes [1]: 27.7%; % Inh @ 0.2 μM (canine TRPM8; [2]): 98%
3 | CCn1c(N(Cc2ccc(C(F)(F)F)cc2)S(=O)(=O)c2ccccc2)nc2cc(F)ccc21 [Compound #47, N-(1-Ethyl-5-fluoro-1H-benzimidazol-2-yl)-N-(4-trifluoromethyl-benzyl)-benzenesulfonamide] | – | – | % Inhibition of shakes [1]: 36%; inhibition at 0.2 µM (canine TRPM8; HEK293, read-out: % Inh @ 0.2 μM): 100%; IC50 (canine TRPM8; IC50, HEK293 cells stably expressing canine TRPM8): 6 nM
4 | Cn1c(N(Cc2ccc(F)c(Cl)c2)S(=O)(=O)c2ccccc2)nc2ccccc21 [compound 20] | 101 | 1 nM | % Inhibition of shakes [1]: 32.6%
5 | Cn1c(N(Cc2ccc(C(F)(F)F)c(F)c2)S(=O)(=O)c2ccccc2)nc2ccccc21 [compound 21] | 102 | 1 nM | –
6 | Cn1c(N(Cc2cc(C(F)(F)F)ccc2F)S(=O)(=O)c2ccccc2)nc2ccccc21 [compound 22] | 102 | 6 nM | –
7 | Cn1c(N(Cc2ccc(OC(F)F)cc2)S(=O)(=O)c2ccccc2)nc2ccccc21 [compound 23] | 102 | 2 nM | –
8 | CC(C)Cn1c(N(Cc2ccc(C(F)(F)F)cc2)S(=O)(=O)c2ccccc2)nc2ccccc21 [compound 24] | 71 | 77 nM | –
9 | Cn1c(N(Cc2ccc(OC(F)(F)F)cc2)S(=O)(=O)c2ccc(Cl)cc2)nc2ccccc21 [compound 26] | 102 | 11 nM | –
10 | Cn1c(N(Cc2ccc(OC(F)(F)F)cc2)S(=O)(=O)c2ccc(C(F)(F)F)cc2)nc2ccccc21 [compound 27] | 101 | 49 nM | –
11 | Cn1c(N(Cc2ccc(C(F)(F)F)cc2)S(=O)(=O)c2ccc(F)cc2)nc2ccccc21 [compound 28] | 95 | 6 nM | –
12 | CCn1c(N(Cc2ccc(OC(F)(F)F)cc2)S(=O)(=O)c2ccccc2)nc2ccccc21 [compound 29] | 95 | 5 nM | –
13 | CCn1c(N(Cc2ccc(C(F)(F)F)cc2)S(=O)(=O)c2ccccc2)nc2ccccc21 [compound 30] | 96 | 4 nM | –
14 | Cn1c(N(Cc2ccc(C(F)(F)F)cc2)S(=O)(=O)c2ccc(C(F)(F)F)cc2)nc2ccccc21 [compound 31] | 96 | 33 nM | –
15 | Cn1c(N(Cc2ccc(OC(F)(F)F)cc2)S(=O)(=O)c2ccc(F)cc2)nc2ccccc21 [compound 32] | 94 | 6 nM | –
16 | CCn1c(N(Cc2ccc(C(F)(F)F)c(F)c2)S(=O)(=O)c2ccccc2)nc2ccccc21 [compound 34] | 102 | 7 nM | –
17 | Cn1c(N(Cc2ccc(C(F)(F)F)c(F)c2)S(=O)(=O)c2ccc(F)cc2)nc2ccccc21 [compound 38] | 102 | 11 nM | –
18 | Cn1c(N(Cc2ccc(C(F)(F)F)c(F)c2)S(=O)(=O)c2ccc(Cl)cc2)nc2ccccc21 [compound 39] | 102 | 10 nM | –
19 | Cn1c(N(Cc2ccc(C(F)(F)F)c(F)c2)S(=O)(=O)c2ccc(C(F)(F)F)cc2)nc2ccccc21 [compound 40] | 101 | 60 nM | –
20 | Cn1c(N(Cc2ccc(C(F)(F)F)cc2)S(=O)(=O)c2ccc(Cl)cc2)nc2ccccc21 [compound 41] | 102 | 9 nM | –
21 | Cn1c(N(Cc2ccc(C(F)(F)F)cc2)S(=O)(=O)c2ccccc2)nc2cc(F)ccc21 [compound 43] | 100 | 4 nM | –
22 | CCn1c(N(Cc2ccc(C(F)(F)F)c(F)c2)S(=O)(=O)c2ccccc2)nc2cc(F)ccc21 [compound 48] | 100 | 7 nM | –
23 | CC(C)Cn1c(N(Cc2ccc(OC(F)(F)F)cc2)S(=O)(=O)c2ccccc2)nc2ccccc21 [compound 49] | 81 | 48 nM | –
24 | CC(C)Cn1c(N(Cc2ccc(C(F)(F)F)c(F)c2)S(=O)(=O)c2ccccc2)nc2ccccc21 [compound 50] | 82 | 37 nM | –

More lines, main results first:

Row | inhibition at 0.2 µM (canine TRPM8; [3]) [%] | IC50 (canine TRPM8; [4]) | SMILES | also measured
25 | 85 | 15 nM and 75 nM | O=S(=O)(c1ccccc1)N(Cc1ccc(C(F)(F)F)cc1)c1nc2ccccc2n1CC(F)(F)F [compound 54] | % Inhibition of shakes [1]: 2.4%; % Inh @ 0.2 μM (canine TRPM8; HEK293 cells stably expressing canine TRPM8, icilin activation): 85, 85%
26 | 96 | 24 nM | CC(C)n1c(N(Cc2ccc(C(F)(F)F)c(F)c2)S(=O)(=O)c2ccccc2)nc2cc(Cl)ccc21 [compound 56] | –
27 | 99 | 9 nM | Cn1c(N(Cc2ccc(OC(F)(F)F)cc2)S(=O)(=O)c2ccccc2)nc2cc(F)ccc21 [compound 57] | –
28 | 99 | 6 nM | Cn1c(N(Cc2ccc(C(F)(F)F)c(F)c2)S(=O)(=O)c2ccccc2)nc2cc(F)ccc21 [compound 58] | –
29 | 76 | 77 nM | O=S(=O)(c1ccccc1)N(Cc1ccc(OC(F)(F)F)cc1)c1nc2ccccc2n1CC(F)(F)F [compound 59] | –
30 | 96 | 47 nM | CC(C)n1c(N(Cc2ccc(OC(F)(F)F)cc2)S(=O)(=O)c2ccccc2)nc2cc(Cl)ccc21 [compound 61] | –
31 | 100 | 19 nM | O=S(=O)(c1ccccc1)N(Cc1ccc(OC(F)(F)F)cc1)c1nc2cccc3c2n1CCC3 [compound 62] | –
32 | 101 | 22 nM | O=S(=O)(c1ccccc1)N(Cc1ccc(C(F)(F)F)c(F)c1)c1nc2cccc3c2n1CCC3 [compound 63] | –
33 | 101 | 17 nM | O=S(=O)(c1ccccc1)N(Cc1ccc(C(F)(F)F)cc1)c1nc2cccc3c2n1CCC3 [compound 65] | –
34 | 98 | 21 nM | Cc1ccc2nc(N(Cc3ccc(OC(F)(F)F)cc3)S(=O)(=O)c3ccccc3)n(C)c2c1 [compound 66] | –
35 | 99 | 24 nM | Cc1ccc2nc(N(Cc3ccc(C(F)(F)F)cc3)S(=O)(=O)c3ccccc3)n(C)c2c1 [compound 68] | –
36 | 101 | 26 nM | O=S(=O)(c1ccccc1)N(Cc1ccc(OC(F)(F)F)cc1)c1nc2ccccc2n1CC1CC1 [compound 69] | –
37 | 101 | 35 nM | O=S(=O)(c1ccccc1)N(Cc1ccc(C(F)(F)F)cc1)c1nc2ccccc2n1CC1CC1 [compound 70] | –
38 | 99 | 19 nM | Cc1cc2nc(N(Cc3ccc(OC(F)(F)F)cc3)S(=O)(=O)c3ccccc3)n(C)c2cc1C [compound 74] | –
39 | 101 | 28 nM | Cc1cc2nc(N(Cc3ccc(C(F)(F)F)c(F)c3)S(=O)(=O)c3ccccc3)n(C)c2cc1C [compound 75] | –
40 | 101 | 9.4 nM | Cc1cccc2c1nc(N(Cc1ccc(C(F)(F)F)c(F)c1)S(=O)(=O)c1ccccc1)n2C [compound 76] | –
